Assay results taken from patent US7153855B2, “Pyrazolopyridinyl pyrimidine therapeutic compounds” (SmithKline Beecham Corporation, priority 2001, dated 2006).

Tested on: HSV-1
Experiment: HSV-1 infection of Vero 76 cells, viral DNA detected by hybridization capture (chemiluminescence)
Type: cell-based
Conditions: Human alphaherpesvirus 1; HSV-1 in Vero 76 cells, MOI=0.001, compounds incubated 40–48 hours at 37° C.; read-out: IC50
Excerpt: In the following example, “MEM” means Minimal Essential Media; “FBS” means Fetal Bovine Serum; “NP40” and “Igepal” are detergents; “MOI” means Multiplicity of Infection; “NaOH” means sodium hydroxide; “MgCl2” means magnesium chloride; “dATP” means deoxyadenosine 5′ triphosphate; “dUTP” means deoxyuridine 5′ triphosphate; “dCTP” means dexoxycytidine 5′ triphosphate; “dGTP” means deoxyguanosine 5′ triphosphate; “GuSCN” means Guanidinium thiocyanate; “EDTA” means ethylenediamine tetraacetic acid; “TE” means Tris-EDTA; “SCC” means sodium chloride/sodium citrate; “APE” means a solution of ammonia acetate, ammonia phosphate, EDTA; “PBS” means phosphate buffered saline; and “HRP” means horseradish peroxidase.
Vero 76 cells were maintained in MEM with Earle's salts, L-glutamine, 8% FBS (Hyclone, A-1111-L) and 100 units/mL Penicillin-100 μg/mL Streptomycin. For assay conditions, FBS was reduced to 2%. Cells are seeded into 96-well tissue culture plates at a density of 5×10^4 cells/well after being incubated for 45 min at 37° C. in the presence of HSV-1 or HSV-2 (MOI=0.001). Test compounds are added to the wells and the plates are incubated at 37° C. for 40–48 hours. Cell lysates are prepared as follows: media was removed and replaced with 150 μL/well 0.2 N NaOH with 1% Igepal CA 630 or NP-40. Plates were incubated up to 14 days at room temperature in a humidified chamber to prevent evaporation.
For the detection probe, a gel-purified, digoxigenin-labeled, 710-bp PCR fragment of the HSV UL-15 sequence was utilized. PCR conditions included 0.5 μM primers, 180 μM dTTP, 20 μM dUTP-digoxigenin (Boehringer Mannheim 1558706), 200 μM each of dATP, dCTP, and dGTP, 1×PCR Buffer II (Perkin Elmer), 2.5 mM MgCl2, 0.025 units/μL of AmpliTaq Gold polymerase (Perkin Elmer), and 5 ng of gel-purified HSV DNA per 100 μL Extension conditions were 10 min at 95° C., followed by 30 cycles of 95° C. for 1 min, 55° C. for 30 sec, and 72° C. for 2 min. The amplification was completed with a 10-min incubation at 72° C. Primers were selected to amplify a 728 bp probe spanning a section of the HSV1 UL15 open reading frame (nucleotides 249–977). Single-stranded transcripts were purified with Promega M13 Wizard kits. The final product was mixed 1:1 with a mixture of 6 M GuSCN, 100 mM EDTA and 200 μg/mL herring sperm DNA and stored at 4° C.
The capture DNA plasmid (HSV UL13 region in pUC) was linearized by cutting with Xba I, denatured for 15 min at 95° C. and diluted immediately into Reacti-Bind DNA Coating Solution (Pierce, 17250, diluted 1:1 with TE buffer, pH 8) at 1 ng/μL 75 μL/well were added to Corning (#3922 or 9690) white 96-well plates and incubated at room temperature for at least 4 hrs before washing twice with 300 μL/well 0.2×SSC/0.05% Tween-20 (SSC/T buffer). The plates were then incubated overnight at room temperature with 150 μL/well 0.2 N NaOH, 1% IGEPAL and 10 μg/mL herring sperm DNA.
Twenty-seven (27) μL of cell lysate was combined with 45 μL of hybridization solution (final concentration: 3M GuSCN, 50 mM EDTA, 100 μg/ml salmon sperm DNA, 5×Denhardt's solution, 0.25×APE, and 5 ng of the digoxigenin-labeled detection probe). APE is 1.5 M NH4-acetate, 0.15 M NH4H2 phosphate, and 5 mM EDTA adjusted to pH 6.0. Mineral oil (50 μL) was added to prevent evaporation. The hybridization plates were incubated at 95° C. for 10 minutes to denature the DNA, then incubated at 42° C. overnight. The wells were washed 6× with 300 μL/well SSC/T buffer then incubated with 75 μL/well anti-digoxigenin-HRP-conjugated antibody (Boehringer Mannheim 1207733, 1:5000 in TE) for 30 min at room temperature. The wells were washed 6× with 300 μL/well with PBS/0.05% Tween-20 before 75 μL/well SuperSignal LBA substrate (Pierce) was added. The plates were incubated at room temperature for 30 minutes and chemiluminescence was measured in a Wallac Victor reader.
The following results were obtained for HSV-1.

Row | SMILES | IC50 [nM]
1 | C=CCOc1ccc(-c2nn3c(NC4CCCC4)cccc3c2-c2ccnc(NC3CC3)n2)cc1 [Example 71, 2-[4-(Allyloxy)phenyl]-N-cyclopentyl-3-[2-(cyclopropylamino)-4-pyrimidinyl]pyrazolo[1,5-a]pyridin-7-amine] | 500
2 | COc1ccc(-c2nn3c(N)cccc3c2-c2ccnc(NC3CCCC3)n2)cc1 [Example 83, 3-[2-(Cyclopentylamino)pyrimidin-4-yl]-2-(4-methoxyphenyl)pyrazolo-[1,5-a]pyridin-7-amine] | 700
3 | c1cc(NC2CC2)n2nc(-c3ccc(OCC4CC4)cc3)c(-c3ccnc(NC4CCCC4)n3)c2c1 [Example 70, 3-[2-(Cyclopentylamino)-4-pyrimidinyl]-N-cyclopropyl-2-[4-(cyclopropylmethoxy)phenyl]pyrazolo[1,5-a]pyridin-7-amine] | 600
4 | Cc1cccc(-c2nn3c(NC4CCCC4)cccc3c2-c2ccnc(NC3CCCC3)n2)c1 [Example 46, N-Cyclopentyl-3-[2-(cyclopentylamino)-4-pyrimidinyl]-2-(3-methylphenyl)pyrazolo[1,5-a]pyridin-7-amine] | 200
5 | Brc1ccccc1-c1nn2c(NC3CCCC3)cccc2c1-c1ccnc(NC2CCCC2)n1 [Example 24, 2-(2-Bromophenyl)-N-cyclopentyl-3-[2-(cyclopentylamino)-4-pyrimidinyl]pyrazolo[1,5-a]pyridin-7-amine] | 900
6 | COCCNc1cccc2c(-c3ccnc(NC4CCCC4)n3)c(-c3cccc(F)c3)nn12 [Example 106, 3-[2-(Cyclopentylamino)-4-pyrimidinyl]-2-(3-fluorophenyl)-N-(2-methoxyethyl)pyrazolo[1,5-a]pyridin-7-amine] | 200
7 | COc1ccc(-c2nn3c(NCCCCNC(=O)CCCC[C@@H]4SC[C@@H]5NC(=O)N[C@@H]54)cccc3c2-c2ccnc(NC3CCCC3)n2)cc1 [Example 82, 5-[(3aS,4S,6aR)-2-Oxohexahydro-1H-thieno[3,4-d]imidazol-4-yl]-N-(4-{[3-[2-(cyclopentylamino)pyrimidin-4-yl]-2-(4-methoxyphenyl)pyrazolo[1,5-a]pyridin-7-yl]amino}butyl)pentanamide] | 400
8 | COc1cccc(-c2nn3c(Cl)cccc3c2-c2ccnc(NC3CCCC3)n2)c1 [Example 50, 4-[7-Chloro-2-(3-methoxyphenyl)pyrazolo[1,5-a]pyridin-3-yl]-N-cyclopentyl-2-pyrimidinamine] | 2500
9 | [N-]=[N+]=Nc1cccc(-c2nn3c(NC4CCCC4)cccc3c2-c2ccnc(NC3CCCC3)n2)c1 [Example 93, 2-(3-Azidophenyl)-N-cyclopentyl-3-[2-(cyclopentylamino)pyrimidin-4-yl]pyrazolo[1,5-a]pyridin-7-amine] | 700
10 | COCCNc1cccc2c(-c3ccnc(NC4CCCC4)n3)c(-c3cccc(Cl)c3)nn12 [Example 104, 2-(3-Chlorophenyl)-3-[2-(cyclopentylamino)-4-pyrimidinyl]-N-(2-methoxyethyl)pyrazolo[1,5-a]pyridin-7-amine] | 200
11 | Clc1ccc(-c2nn3c(NC4CCCC4)cccc3c2-c2ccnc(NC3CCCC3)n2)cc1Br [Example 43, 2-(3-Bromo-4-chlorophenyl)-N-cyclopentyl-3-[2-(cyclopentylamino)-4-pyrimidinyl]pyrazolo[1,5-a]pyridin-7-amine] | 500
12 | COc1ccc(-c2nn3c(NCCN)cccc3c2-c2ccnc(NC3CCCC3)n2)cc1 [Example 96, N′-[3-[2-(Cyclopentylamino)-4-pyrimidinyl]-2-(4-methoxyphenyl)pyrazolo[1,5-a]pyridin-7-yl]-1,2-ethanediamine] | 1100
13 | COc1ccc(-c2nn3c(NCCN4CCOCC4)cccc3c2-c2ccnc(NC3CCCC3)n2)cc1 [Example 59, 3-[2-(Cyclopentylamino)-4-pyrimidinyl]-2-(4-methoxyphenyl)-N-[2-(4-morpholinyl)ethyl]pyrazolo[1,5-a]pyridin-7-amine] | 400
